# Laboratory results: patent EP2845588A1, “PIN1 inhibitors for use in the prevention and/or treatment of theileriosis, and related applications” (Centre National de la Recherche Scientifique (CNRS), priority 2013, dated 2015)
# Key:
# [1] = tested on: Theileria parasites in TBL3-infected cells; experiment: Parasites quantification by DAPI staining in infected cells; type: cell-based, T.annulata; conditions: 72h, Buparvaquone 200ng/ml, Juglone 5 µM, PiB 1 µM
# Method: All infected bovine cell lines used in this study were previously described: TBL3 cells were derived from in vitro infection of the spontaneous bovine-B lymphosarcoma cell line, BL3, with Hissar stock of T.annulata. The TpMD409 lymphocyte cell line are infected with T. parva. The culture conditions of these cell lines were previously described by Moreau et al., 1999. Cells were cultured in RPMI 1640 (Gibco-BRL, Paisley, UK), supplemented with 10% heat-inactivated Fetal calf serum, 4mM L-Glutamine, 25mM HEPES, 10µM β-mercaptoethanol and 100µg/ml penicillin/streptomycin in a humidified 5%CO2 atmosphere at 37°C. HepG2, NIH/3T3 and MEF cells lines were cultured in DMEM (Gibco-BRL, Paisley, UK), supplemented with 10% heat-inactivated Fetal calf serum, 4mM L-Glutamine, 25 mM HEPES, 10µM β-mercaptoethanol and 100µg/ml penicillin/streptomycin in a humidified 5% CO2 atmosphere at 37°C. Cell numbers, as judged by Trypan Blue exclusion test, were determined by counting cells using a Countess automated cell counter (Invitrogen, CA, USA). The anti-parasite drug Buparvaquone (BW720c) was used at 200ng/ml for 72 hours. BW720c has no effect on growth of uninfected cells. […] Images of immunofluoresence staining were photographed with a fluorescent microscope (Leica Inverted 6000) and the number of parasites per cells was counted. […]
# [2] = tested on: parasite-infected cells (Theileria parva - TpMD409); experiment: Cell viability XTT assay, TpMD409; type: cell-based, bovine; conditions: 72h
# Method: (§1) All infected bovine cell lines used in this study were previously described: TBL3 cells were derived from in vitro infection of the spontaneous bovine-B lymphosarcoma cell line, BL3, with Hissar stock of T.annulata. The TpMD409 lymphocyte cell line are infected with T. parva. The culture conditions of these cell lines were previously described by Moreau et al., 1999. Cells were cultured in RPMI 1640 (Gibco-BRL, Paisley, UK), supplemented with 10% heat-inactivated Fetal calf serum, 4mM L-Glutamine, 25mM HEPES, 10µM β-mercaptoethanol and 100µg/ml penicillin/streptomycin in a humidified 5%CO2 atmosphere at 37°C. HepG2, NIH/3T3 and MEF cells lines were cultured in DMEM (Gibco-BRL, Paisley, UK), supplemented with 10% heat-inactivated Fetal calf serum, 4mM L-Glutamine, 25 mM HEPES, 10µM β-mercaptoethanol and 100µg/ml penicillin/streptomycin in a humidified 5% CO2 atmosphere at 37°C. Cell numbers, as judged by Trypan Blue exclusion test, were determined by counting cells using a Countess automated cell counter (Invitrogen, CA, USA). The anti-parasite drug Buparvaquone (BW720c) was used at 200ng/ml for 72 hours. BW720c has no effect on growth of uninfected cells. […]
# [3] = biological target: T1, TaPIN WT (Theileria annulata, UniProt Q4UG71); experiment: CyclinD1-Luciferase reporter assay, TaPIN WT in TBL3 cells; type: cell-based, T. annulata; conditions: parasite-infected cells (TBL3)
# T1 construct: expressed in transfected cells; host or cells: TBL3 (T. annulata-infected bovine B cells), electroporated with the pREV-HA-FLAG-RIL2 TaPIN plasmid
# Method: (§2) Bovine cells were transfected with the 5xHRE (Staller et al., 2003) or CyclinD1- (Wulf et al., 2001) Luciferase reporters, using electroporation (Neon kit, Invitrogen, CA, USA). Mouse cells were transfected using Lipofectamine 2000 (Invitrogen, CA, USA). Transfections efficiencies were normalized to Renilla activity by co-transfection of a pRL-TK Renilla reporter plasmid (Promega, Ref.: E6241). Luciferase assays were performed 36h post-transfection using the Dual-Luciferase Reporter Assay System (Promega, Ref: E1980) in a microplate luminometer. Relative luminescence was represented as the ratio Firefly/Renilla luminescence, compared with the corresponding empty vector control. The 5xHRE promoter-Luciferase construct was obtained from P Staller (Biotech Research & Innovation Centre, Copenhagen, […]).
# [4] = biological target: T2, TaPIN Mutant A53P (Theileria annulata, UniProt Q4UG71, A53P); experiment: CyclinD1-Luciferase reporter assay, TaPIN Mutant A53P in TBL3 cells; type: cell-based, T. annulata; conditions: parasite-infected cells (TBL3)
# T2 construct: expressed in transfected cells; host or cells: TBL3 (T. annulata-infected bovine B cells), electroporated with pRev-HA-FLAG-TaPIN A53P-RIL2
# Source text: After sequencing the TaPIN gene expressed in Buparvaquone-resistant infected cells, the Ala53Pro point mutation identified in said gene was introduced into the pRev-HA-FLAG-TaPIN WT-RIL2 plasmid using the set of primers of sequence SEQ ID NO:41 and SEQ ID NO:42 following a 3-step PCR protocol.
# as §2
# [5] = tested on: parasite load in infected TBL3 cells; experiment: Western blot analysis of parasite actin (TaActin) in infected TBL3 cells; type: cell-based, T.annulata; conditions: 72h treatment
# [6] = tested on: TBL3 cells transiently expressing TaPIN Mutant A53P; experiment: Proliferation of TBL3 cells transiently expressing TaPIN Mutant A53P; type: cell-based, bovine; conditions: transient expression of TaPIN Mutant A53P
# Method: as §1
# [7] = tested on: HIF1alpha transcriptional activity; experiment: HRE-Luciferase reporter assay; type: cell-based, bovine
# Method: as §2
# [8] = tested on: HepG2 cells; experiment: Cell viability XTT assay, HepG2; type: cell-based, human; conditions: 72h
# Method: All infected bovine cell lines used in this study were previously described: TBL3 cells were derived from in vitro infection of the spontaneous bovine-B lymphosarcoma cell line, BL3, with Hissar stock of T.annulata. The TpMD409 lymphocyte cell line are infected with T. parva. The culture conditions of these cell lines were previously described by Moreau et al., 1999. Cells were cultured in RPMI 1640 (Gibco-BRL, Paisley, UK), supplemented with 10% heat-inactivated Fetal calf serum, 4mM L-Glutamine, 25mM HEPES, 10µM β-mercaptoethanol and 100µg/ml penicillin/streptomycin in a humidified 5%CO2 atmosphere at 37°C. HepG2, NIH/3T3 and MEF cells lines were cultured in DMEM (Gibco-BRL, Paisley, UK), supplemented with 10% heat-inactivated Fetal calf serum, 4mM L-Glutamine, 25 mM HEPES, 10µM β-mercaptoethanol and 100µg/ml penicillin/streptomycin in a humidified 5% CO2 atmosphere at 37°C. Cell numbers, as judged by Trypan Blue exclusion test, were determined by counting cells using a Countess automated cell counter (Invitrogen, CA, USA). The anti-parasite drug Buparvaquone (BW720c) was used at 200ng/ml for 72 hours. BW720c has no effect on growth of uninfected cells.
# 1×10^4 cells were plated in 96-well plates in triplicate and Buparvaquone, Juglone or PiB was added. […]
SMILES,parasites in TBL3 cells [1],viability of parasite-infected cells [2],CyclinD1 promoter activation by TaPIN WT [3],CyclinD1 promoter activation induced by the TaPIN Mutant A53P [4],"parasite load, parasite actin (TaActin) [5]",drug effect on TBL3 cell proliferation on overexpression of the TaPIN Mutant A53P [6],HIF1alpha transcriptional activity [7],viability of HepG2 cells [8]
"CC(C)(C)C1CCC(CC2=C(O)C(=O)c3ccccc3C2=O)CC1 (stereo not shown) [Buparvaquone, 2-((4-tert-butylcyclohexyl)methyl)-3-hydroxy-1,4-naphthoquinone]",eliminate parasites,decreased the viability,reversed,no significant effect,decreased parasite load,rescued,reduced,reduce the viability
"CCOC(=O)CN1C(=O)c2ccc3c4c(ccc(c24)C1=O)C(=O)N(CC(=O)OCC)C3=O [PiB, benzo[Imn][3,8]phenanthroline-2,7-diacetic acid, 1,3,6,8-tetrahydro-1,3,6,8-tetraoxo-, diethyl ester]",eliminate parasites,–,–,–,–,–,reduced,–
